The test system of assay [1] is T1, pQR2189.
T1 construct: N- and C-terminal His6 tags, pET-28a(+) NdeI/XhoI, expressed in E. coli BL21(DE3)
The assay is described as follows: HPLC initial rates, Michaelis-Menten fit. Format: biochemical, uncultured bacterium (household drain metagenome). As to conditions: apparent, PLP 1 mM, KPi pH 8 50 mM, 20% DMSO, 35 °C. An excerpt: HPLC initial rates, Michaelis-Menten fit on pQR2189

The test system of assay [2] is T1, pQR2189. Description: continuous UV absorbance at […] nm, Michaelis-Menten fit. Format: biochemical, uncultured bacterium (household drain metagenome). Conditions: apparent, PLP 0.1 mM, KPi pH 7.5 50 mM, 1% DMSO, 30 °C.

As for `CC(C)(C)OC(=O)N1CCC(=O)C1` [18a, 1-Boc-3-pyrrolidinone], the Km in the assay on pQR2189 [1] (isopropylamine 200 mM) was found to be 18.9 ± 3.1 mM.
Turning to `C[C@H](N)c1ccccc1` [(S)-7, (S)-α-methylbenzylamine], the Km in the assay on pQR2189 [2] (pyruvate 1 mM) was 14.8 ± 3.2 mM.
`CC(=O)C(=O)O` [compound 2, pyruvate]: in the assay with pQR2189 [2] (amine donor (S)-7 5 mM), the Km came out at 0.29 ± 0.08 mM.
As to `CC(C)N` [compound 27, isopropylamine], in the assay on pQR2189 [1] (1-Boc-3-pyrrolidinone 10 mM), the Km was determined as 10.6 ± 1.6 mM.

One may read the Km as the concentration of substrate that gives half-maximal velocity.

Source of the values: paper PMC6394892, “The identification and use of robust transaminases from a domestic drain metagenome” (Green Chemistry, 2018).
